Like-named read-outs stand apart in the source and are kept apart here.
Legend:
[1] = tested on: HEK cells expressing SMVT; experiment: Effect of treatment on the creatine kinase system (intracellular creatine phosphate, ATP, creatine); format: cell-based, human; settings: 100 μM, relative to buffer
[2] = cited from earlier work
[3] = tested on: H9C2 cells; format: cell-based, rat
[4] = healthy volunteers, oral creatine administration; cited from earlier work
[5] = tested on: HEK293 cells; experiment: Restoration of cellular energy homeostasis following sodium azide treatment; format: cell-based, human; settings: azide 20 minutes, then compound or control media 20 minutes; FIG. 12
[6] = cited from earlier work; remark: listed apart in the source
[7] = animals fed a diet containing up to 1%; cited from earlier work

SMILES | Percent Increase in Intracellular Concentrations, ATP ([1]; After 1 Hour) [%] | Percent Increase in Intracellular Concentrations, Creatine ([1]; After 1 Hour) [%] | Percent Increase in Intracellular Concentrations, Creatine Phosphate ([1]; After 1 Hour) [%] | Percent Increase in Intracellular Concentrations, ATP ([1]; After 3 Hours) [%] | Percent Increase in Intracellular Concentrations, Creatine ([1]; After 3 Hours) [%] | Percent Increase in Intracellular Concentrations, Creatine Phosphate ([1]; After 3 Hours) [%] | Adverse side effects ([2]; patients with cardiac diseases, intravenous injection up to 8 gm/day) | Protection against 3-NP toxicity (ATP luminescence) [3] | Increase of cerebral creatine phosphate [4] | Reversal of azide-induced ATP depletion [5] | Duration of increases in tissue creatine phosphate levels ([6]; following oral creatine supplementation) [days] | Overall increase in creatine phosphate levels by creatine supplementation ([6]; supplementation typically takes weeks) [%] | Adverse side effects ([2]; athletes and body builders, 2-3 gm/day) | Adverse effects [7]
CN(CC(=O)O)C(=N)NP(=O)(O)O [Creatine Phosphate, creatine phosphate] | 27 | −6 | 15 | 10 | 0 | 5 | without adverse side effects | – | – | – | – | – | – | –
CN(CC(=O)O)C(=N)N [Creatine, creatine] | 5 | 8 | 26 | −5 | 40 | 30 | – | not | about 10% | not protective | > 14 | < 50 | – | –
CN(CC(=O)O)C(=N)N.O [creatine monohydrate] | – | – | – | – | – | – | – | – | – | – | – | – | without adverse side effects | –
NC1=NCCN1CC(=O)O [cyclocreatine] | – | – | – | – | – | – | – | – | – | – | – | – | – | do not exhibit adverse effects

— patent publication US20070281909A1, “Creatine phosphate prodrugs, compositions and uses thereof” (XenoPort, Inc., priority 2006, published 2007)
